The source of these data is patent US20190282550A1, “METHOD OF TREATMENT” (The University of Melbourne, priority 2016, published 2019).

Each structure is given as a SMILES string.

A short description of series [1]: Mouse fertility breeding experiments. Particulars: 5 mg/kg intravenous to female mice 4 weeks prior to breeding.
Protocol: Vinorelbine is administered by tail vein injection to wild type swiss mice. The drug (or vehicle controls) is administered by tail vein twice weekly (i.e. approximately mirroring the frequency of dosing for the xenograft studies). The middle dose that was effective in regressing tumor size (2.5 mg/kg) is to be used. After one month the mice are paired for breeding. It is proposed to sacrifice mice at about day 19 of pregnancy.
Parameters measured include 1) Number of fetuses' and implantations sites; 2) fetal crown rump length; 3) fetal weight; 4) placenta weights.
The subject of series [2] is primary first trimester placenta cells. The series can be described thus: MTS cell viability assay, primary first trimester placenta cells (FIG. 1). It counts as cell-based, human. The protocol:
For in vitro experiments, methotrexate and vinorelbine are administered at different doses (from 10 nM to 100,000 nM). When used, gefitinib is combined with methotrexate at 8 μM. Cells/tissues are treated for 24 hours and 48 hours. Methodology for the following standard techniques are: Tissue culture (Nilsson et al. (2013) Obstet Gynecol 122(4):737-44), RNA, qPCR, immunohistochemistry (Nilsson et al. (2013) supra; Onda et al. (2015) Hypertension:10.1161/hyptertensionaha.114.04781; Kaitu'u-Lino et al. Pregnancy Hypertension: An International Journal of Women's Cardiovascular Health 2014 placenta explants (Brownfoot et al. (2015) Hypertension), FACs sorting (Nilsson et al. (2013) supra), trophoblast purification ((Nilsson et al. (2013) supra; Onda et al. (2015) supra; Kaitu'u Lino et al. (2014) supra) and western blots (Onda et al. (2015) supra).
First trimester placenta tissue are obtained from women who are undergoing a termination of pregnancy. Placenta cells are purified as previously described (Nilsson et al. (2013) supra). They are treated with different doses (10-100,000 nM) of vinorelbine, methotrexate, methotrexate+gefitinib, gefitinib alone (and vehicle control). Cell viability is measured by MTS assay (see FIG. 1). To compare the relative potencies, the EC50 is calculated for the drugs (dose that induces 50% cell death).
VB doses were 10,000 times lower than MXT.
On the technique in general: Formazan colour is commonly taken as a measure of viable cells.

A further series has as its system JEG3. The series can be described thus: MTS cell viability assay, JEG3 placenta cell line. It counts as cell-based. The protocol:
(§1) The ability for vinorelbine to reduce placenta cell viability was assessed in two placenta cell lines (A;HTR8, B; JEG3) using a MTS cell viability assay.

The next series relates to placenta cells (JEG3). Nature of the series: Mouse xenograft model, placenta cells (JEG3) grafted subcutaneously.
The test system of series [3] is HTR8. Nature of the series: xCELLigence placenta cell proliferation. Particulars: for proliferation at 48 h post plating: compared to control. It counts as cell-based. How it is done: The effect of vinorelbine on placenta cell (HTR8) proliferation was assessed using xCELLigence (C).
Series [4] has as its system HTR8 cells. Nature of the series: FACs analysis of cell cycle progression. In kind it is cell-based. Particulars: 1 μM and 10 μM. How it is done: The effect of Vinorelbine on cell cycle progression in HTR8 cells was assessed using FACs analysis (FIGS. 8A through G). […] The proportion of cells in G1, S and G2 is graphically represented in n=3 replicates (D).
The subject of series [5] is HTR8 cells.
Series [6] concerns first trimester placenta explants. Nature of the series: First trimester placenta explants, M30 cytodeath immunohistochemistry. In kind it is cell-based, human. Particulars: compared to methotrexate±gefitinib. The protocol:
First trimester placenta explants are prepared and treated with the same drugs as above. After culture cells are fixed in paraformadehyde and immunohistochemistry staining performed with an M30 cytodeath antibody (detects apoptotic cell death). hCG secretion in to the cell culture media will be measured.

For a further series, the system named is placenta cells. Nature of the series: Apoptosis versus necrosis in placenta cells. In kind it is cell-based. How it is done:
Apoptosis incites less of an inflammatory response that may otherwise injure local tissues. In this Example, the number of apoptotic cells after treatment with vinorelbine is assessed.

A further series has as its system human Fallopian tubes. Nature of the series: Human Fallopian tubes treated ex vivo, western blot of apoptotic markers. On the technique in general: A western blot detects proteins with antibodies after separation by electrophoresis.
Series [7] relates to HTR8. Nature of the series: MTS cell viability assay, HTR8 placenta cell line. It counts as cell-based. The protocol: as §1
The conditions of series [8]: oral, 60 mg/m^2 once a week; cited from earlier work.
The mark [9] stands for this setting: increasing doses, intravenously, vs. vehicle.
Setting [10] is: western blot densitometry, n=3 tubes.

Description for human Fallopian tubes: Fallopian tube cells are obtained from (non pregnant) women undergoing hysterectomy and explants prepared as previously published (Shaw et al. (2011) Am J Pathol 178(1):253-60). […] Investigators stain the explants with M30 antibody by immunohistochemistry (measures late apoptosis) and obtain tissue lysates and perform western blot to measure the following proteins involved in apoptosis (Elmore (2007) supra): Bcl-2, Bax, Bid and Bim and quantify by densiometric analysis.
Human Fallopian tubes were obtained at hysterectomy (from women of child-bearing age).

With `CCC1=C[C@@H]2CN(C1)Cc1c([nH]c3ccccc13)[C@@](C(=O)OC)(c1cc3c(cc1OC)N(C)[C@H]1[C@@](O)(C(=O)OC)[C@H](OC(C)=O)[C@]4(CC)C=CCN5CC[C@]31[C@@H]54)C2` [vinorelbine], in [1], the “crown to rump length” value was “did not alter”, the fetal weight entry is recorded as “did not alter”, the fetal/placenta ratio result is reported as “did not alter” and the litter size result is listed as “did not alter”. Further, the “inducing death of primary first trimester placenta cells” value in series [2] (compared to methotrexate±gefitinib) is “significantly more effective in inducing death”. Further, in [2] (placenta cell death), the “potency relative to methotrexate” value is on record as 1,000 to 10,000 times. The cell viability entry in the series with JEG3 is listed as “significant dose dependent reduction in cell viability”. For the same compound, in the series with placenta cells (JEG3) (setting [9]), the “serum human chorionic gonadotropin (hCG) levels” value was “significantly reduced”, the “tumor volume over time” value is reported as “dose dependently reduced tumor volume over time” and the tumor weight entry was “significantly reduced tumor weight”. For the same compound, in the series with placenta cells (JEG3) (proposed, compared to methotrexate±gefitinib), the “regressing placenta cells in xenografted SCID mice” value was “more effective than methotrexate±gefitinib”. The “proliferation at 48 h post plating” value in the series with HTR8 [3] was “proliferation was reduced at 1, 10 and 100 μM”. Also, the HTR8 proliferation result in the series with HTR8 [3] (xCELLigence, over time) is given as “reduced HTR8 proliferation in a dose-dependent manner”. In addition, in the series with HTR8 cells [4], the cell cycle progression entry is reported as “inhibits cell cycle progression, with cells arrested in the G2 phase of mitosis”. The “cells halted at G2” value with HTR8 cells [4] (compared to control, n=3 replicates) is reported as “significantly more cells halted at G2”. In the series with HTR8 cells [5], the “percentage of dead cells” value was “No significant changes” and the “percentage of live HTR8 cells” value was “significantly reduced”. For the same compound, in the series with HTR8 cells [5] (Annexin V expression), the “percentage of apoptotic HTR8 cells” value was “significantly increased”. Besides, the “M30 staining of placenta explants” value in series [6] is “more intense M30 staining of placenta explants at a lower doses”. Moreover, the “mode of placenta cell death” value in the series with placenta cells is “mainly by apoptosis rather than necrosis”. The “markers of apoptosis in human Fallopian tubes” value in the series with human Fallopian tubes (preliminary data) is given as “does not upregulate markers of apoptosis”. Also, in the series with human Fallopian tubes (setting [10]), the BAX protein expression result is “no effect” and the “BCL 2 protein expression” value is on record as “no effect”. For the same compound, in the series on HTR8 [7], the cell viability result was “significant dose dependent reduction in cell viability”. Further, the neutropenia occurrence in series [8] is 11%.
In the case of `CN(Cc1cnc2nc(N)nc(N)c2n1)c1ccc(C(=O)N[C@@H](CCC(=O)O)C(=O)O)cc1` [methotrexate], the “proliferation at 48 h post plating” value in the series with HTR8 [3] was “no significant effect”.
